Drawing on the OligoGym collection, this text covers target mRNA inhibition for 30 substances.

This series has as its target HBV. As to conditions: ASO.

Several values for one entry are separate records, joined by “and”; a condition that tells them apart may be missing. Equal entries are not always repeated. HELM strings list units from the 5' end as sugar, base in round brackets, then linkage (d deoxyribose, r ribose, m 2'-O-methyl, p phosphodiester). Methylation of C is not given here. [moe] = 2'-O-(2-methoxyethyl) (MOE); [cEt] = constrained ethyl (cEt); [sp] = phosphorothioate linkage

As for “RNA1{[moe](A)[sp].[moe](C)[sp].[moe](G)[sp].[moe](G)[sp].d(G)[sp].d(C)[sp].d(A)[sp].d(A)[sp].d(C)[sp].d(A)[sp].d(T)[sp].d(A)[sp].d(C)[sp].[moe](C)[sp].[moe](T)[sp].[moe](T)[sp].[moe](G)}$$$$V2.0”, the target mRNA inhibition (HepG2, 0.07 µM) was 38% and 41%.

Take “RNA1{[moe](A)[sp].[moe](C)[sp].[moe](G)[sp].[moe](G)[sp].d(G)[sp].d(C)[sp].d(A)[sp].d(A)[sp].d(C)[sp].d(A)[sp].d(T)[sp].d(A)[sp].d(C)[sp].[moe](C)[sp].[moe](T)[sp].[moe](T)}$$$$V2.0”: for the setting “HepG2, 0.07 µM”, the target mRNA inhibition is 50% and 54%.

For “RNA1{[moe](A)[sp].[moe](C)[sp].[moe](G)[sp].[moe](T)[sp].[moe](G)[sp].d(C)[sp].d(A)[sp].d(G)[sp].d(A)[sp].d(G)[sp].d(G)[sp].d(T)[sp].d(G)[sp].d(A)[sp].[moe](A)[sp].[moe](G)}$$$$V2.0”, for the setting “HepG2, 0.07 µM”, the target mRNA inhibition was 6% and 13%.

For “RNA1{[moe](A)[sp].[moe](C)[sp].[moe](G)[sp].[moe](T)[sp].d(G)[sp].d(C)[sp].d(A)[sp].d(G)[sp].d(A)[sp].d(G)[sp].d(G)[sp].d(T)[sp].d(G)[sp].[moe](A)[sp].[moe](A)[sp].[moe](G)[sp].[moe](C)}$$$$V2.0”, the target mRNA inhibition (HepG2, 0.07 µM) was 62% and 57%.

“RNA1{[moe](A)[sp].[moe](C)[sp].[moe](G)[sp].[moe](T)[sp].d(G)[sp].d(C)[sp].d(A)[sp].d(G)[sp].d(A)[sp].d(G)[sp].d(G)[sp].d(T)[sp].d(G)[sp].[moe](A)[sp].[moe](A)[sp].[moe](G)}$$$$V2.0”: the target mRNA inhibition (HepG2, 0.07 µM) is 53% and 45%.

For “RNA1{[moe](A)[sp].[moe](C)[sp].[moe](G)[sp].d(T)[sp].d(G)[sp].d(C)[sp].d(A)[sp].d(G)[sp].d(A)[sp].d(G)[sp].d(G)[sp].d(T)[sp].d(G)[sp].[cEt](A)[sp].[cEt](A)[sp].[cEt](G)}$$$$V2.0”, the target mRNA inhibition (HepG2, 0.07 µM) is 74% and 78%.

In the case of “RNA1{[moe](A)[sp].[moe](C)[sp].[moe](T)[sp].[moe](A)[sp].[moe](G)[sp].d(T)[sp].d(A)[sp].d(A)[sp].d(A)[sp].d(C)[sp].d(T)[sp].d(G)[sp].d(A)[sp].d(G)[sp].[moe](C)[sp].[moe](C)}$$$$V2.0”, for the setting “HepG2, 0.07 µM”, the target mRNA inhibition is 64% and 66%.

For the substance “RNA1{[moe](A)[sp].[moe](C)[sp].[moe](T)[sp].[moe](A)[sp].d(G)[sp].d(T)[sp].d(A)[sp].d(A)[sp].d(A)[sp].d(C)[sp].d(T)[sp].d(G)[sp].d(A)[sp].[moe](G)[sp].[moe](C)[sp].[moe](C)[sp].[moe](A)}$$$$V2.0”, the target mRNA inhibition (HepG2, 0.07 µM) was 62% and 58%.

Take “RNA1{[moe](A)[sp].[moe](C)[sp].[moe](T)[sp].[moe](G)[sp].[moe](G)[sp].[moe](A)[sp].d(G)[sp].d(C)[sp].d(C)[sp].d(A)[sp].d(C)[sp].d(C)[sp].d(A)[sp].d(G)[sp].d(C)[sp].[moe](A)[sp].[moe](G)}$$$$V2.0”: the target mRNA inhibition (HepG2, 0.07 µM) is 66% and 46%.

In the case of “RNA1{[moe](A)[sp].[moe](C)[sp].[moe](T)[sp].d(G)[sp].d(G)[sp].d(A)[sp].d(G)[sp].d(C)[sp].d(C)[sp].d(A)[sp].d(C)[sp].d(C)[sp].d(A)[sp].[cEt](G)[sp].[cEt](C)[sp].[cEt](A)}$$$$V2.0”, the target mRNA inhibition (HepG2, 0.07 µM) was 64% and 73%.

Turning to “RNA1{[moe](A)[sp].[moe](C)[sp].d(C)[sp].d(A)[sp].d(C)[sp].d(T)[sp].d(G)[sp].d(A)[sp].d(A)[sp].d(C)[sp].d(A)[sp].[moe](A)[sp].[moe](A)[sp].[moe](T)[sp].[moe](G)[sp].[moe](G)[sp].[moe](C)}$$$$V2.0”, the target mRNA inhibition (HepG2, 0.07 µM) was 58% and 68%.

Consider “RNA1{[moe](A)[sp].[moe](C)[sp].d(G)[sp].d(G)[sp].d(G)[sp].d(C)[sp].d(A)[sp].d(A)[sp].d(C)[sp].d(A)[sp].d(T)[sp].[moe](A)[sp].[moe](C)[sp].[moe](C)[sp].[moe](T)[sp].[moe](T)}$$$$V2.0”, for which the target mRNA inhibition (HepG2, 0.07 µM) was 61% and 42%.

As to “RNA1{[moe](A)[sp].[moe](C)[sp].d(T)[sp].d(G)[sp].d(G)[sp].d(A)[sp].d(G)[sp].d(C)[sp].d(C)[sp].d(A)[sp].d(C)[sp].[moe](C)[sp].[moe](A)[sp].[moe](G)[sp].[moe](C)[sp].[moe](A)}$$$$V2.0”, for the setting “HepG2, 0.07 µM”, the target mRNA inhibition is 53% and 42%.

In the case of “RNA1{[moe](A)[sp].[moe](G)[sp].[moe](A)[sp].[moe](G)[sp].d(A)[sp].d(A)[sp].d(G)[sp].d(T)[sp].d(C)[sp].d(C)[sp].d(A)[sp].d(C)[sp].d(C)[sp].[moe](A)[sp].[moe](C)[sp].[moe](G)[sp].[moe](A)}$$$$V2.0”, where the note is “HepG2, 0.07 µM”, the target mRNA inhibition worked out at 17%.

For “RNA1{[moe](A)[sp].[moe](G)[sp].[moe](A)[sp].[moe](T)[sp].[moe](G)[sp].d(A)[sp].d(G)[sp].d(G)[sp].d(C)[sp].d(A)[sp].d(T)[sp].d(A)[sp].d(G)[sp].d(C)[sp].[moe](A)[sp].[moe](G)}$$$$V2.0”, the target mRNA inhibition (HepG2, 0.07 µM) is 41% and 31%.

On to “RNA1{[moe](A)[sp].[moe](G)[sp].[moe](A)[sp].d(A)[sp].d(G)[sp].d(T)[sp].d(C)[sp].d(C)[sp].d(A)[sp].d(C)[sp].d(C)[sp].d(A)[sp].d(C)[sp].[cEt](G)[sp].[cEt](A)[sp].[cEt](G)}$$$$V2.0”, for which the target mRNA inhibition (HepG2, 0.07 µM) was 42% and 55%.

In the case of “RNA1{[moe](A)[sp].[moe](G)[sp].[moe](A)[sp].d(G)[sp].d(G)[sp].d(T)[sp].d(G)[sp].d(A)[sp].d(A)[sp].d(G)[sp].d(C)[sp].d(G)[sp].[moe](A)[sp].[moe](A)[sp].[moe](G)[sp].[moe](T)[sp].[moe](G)}$$$$V2.0”, the target mRNA inhibition (HepG2, 0.07 µM) was 70% and 52%.

Regarding “RNA1{[moe](A)[sp].[moe](G)[sp].[moe](C)[sp].[moe](G)[sp].[moe](A)[sp].d(A)[sp].d(G)[sp].d(T)[sp].d(G)[sp].d(C)[sp].d(A)[sp].d(C)[sp].d(A)[sp].d(C)[sp].[moe](G)[sp].[moe](G)}$$$$V2.0”, the target mRNA inhibition (HepG2, 0.07 µM) was 79% and 74%.

Consider “RNA1{[moe](A)[sp].[moe](G)[sp].[moe](C)[sp].d(G)[sp].d(A)[sp].d(A)[sp].d(G)[sp].d(T)[sp].d(G)[sp].d(C)[sp].d(A)[sp].d(C)[sp].d(A)[sp].[cEt](C)[sp].[cEt](G)[sp].[cEt](G)}$$$$V2.0”, for which the target mRNA inhibition runs as follows: (HepG2, 0.0092593 µM) 17%; (HepG2, 0.0277778 µM) 49%; (HepG2, 0.07 µM) 82% and 86%; (HepG2, 0.0833333 µM) 79%; (HepG2, 0.25 µM) 90%.

Turning to “RNA1{[moe](A)[sp].[moe](G)[sp].[moe](G)[sp].[moe](C)[sp].d(A)[sp].d(T)[sp].d(A)[sp].d(G)[sp].d(C)[sp].d(A)[sp].d(G)[sp].d(C)[sp].d(A)[sp].[moe](G)[sp].[moe](G)[sp].[moe](A)}$$$$V2.0”, the target mRNA inhibition (HepG2, 0.07 µM) is 52% and 36%.

Take “RNA1{[moe](A)[sp].[moe](G)[sp].[moe](G)[sp].[moe](T)[sp].d(G)[sp].d(A)[sp].d(A)[sp].d(G)[sp].d(C)[sp].d(G)[sp].d(A)[sp].d(A)[sp].d(G)[sp].[moe](T)[sp].[moe](G)[sp].[moe](C)}$$$$V2.0”: the target mRNA inhibition (HepG2, 0.07 µM) is 3% and 19%.

“RNA1{[moe](A)[sp].[moe](G)[sp].[moe](T)[sp].[moe](T)[sp].[moe](C)[sp].d(C)[sp].d(G)[sp].d(C)[sp].d(A)[sp].d(G)[sp].d(T)[sp].d(A)[sp].d(T)[sp].d(G)[sp].[moe](G)[sp].[moe](A)[sp].[moe](T)}$$$$V2.0”: the target mRNA inhibition (HepG2, 0.07 µM) is 56% and 49%.

As to “RNA1{[moe](A)[sp].[moe](G)[sp].[moe](T)[sp].d(C)[sp].d(C)[sp].d(A)[sp].d(C)[sp].d(C)[sp].d(A)[sp].d(C)[sp].d(G)[sp].d(A)[sp].d(G)[sp].[cEt](T)[sp].[cEt](C)[sp].[cEt](T)}$$$$V2.0”, the target mRNA inhibition (HepG2, 0.07 µM) was 35% and 29%.

As for “RNA1{[moe](A)[sp].[moe](G)[sp].d(G)[sp].d(A)[sp].d(G)[sp].d(T)[sp].d(T)[sp].d(C)[sp].d(C)[sp].d(G)[sp].d(C)[sp].[moe](A)[sp].[moe](G)[sp].[moe](T)[sp].[moe](A)[sp].[moe](T)}$$$$V2.0”, for the setting “HepG2, 0.07 µM”, the target mRNA inhibition is 50% and 37%.

In the case of “RNA1{[moe](A)[sp].[moe](G)[sp].d(G)[sp].d(C)[sp].d(A)[sp].d(T)[sp].d(A)[sp].d(G)[sp].d(C)[sp].d(A)[sp].d(G)[sp].[moe](C)[sp].[moe](A)[sp].[moe](G)[sp].[moe](G)[sp].[moe](A)[sp].[moe](T)}$$$$V2.0”, the target mRNA inhibition (HepG2, 0.07 µM) was 75% and 68%.

Turning to “RNA1{[moe](A)[sp].[moe](G)[sp].d(G)[sp].d(T)[sp].d(G)[sp].d(A)[sp].d(A)[sp].d(G)[sp].d(C)[sp].d(G)[sp].d(A)[sp].[moe](A)[sp].[moe](G)[sp].[moe](T)[sp].[moe](G)[sp].[moe](C)}$$$$V2.0”, the target mRNA inhibition (HepG2, 0.07 µM) is 70% and 60%.

Turning to “RNA1{[moe](A)[sp].[moe](G)[sp].d(T)[sp].d(T)[sp].d(C)[sp].d(C)[sp].d(G)[sp].d(C)[sp].d(A)[sp].d(G)[sp].d(T)[sp].[moe](A)[sp].[moe](T)[sp].[moe](G)[sp].[moe](G)[sp].[moe](A)}$$$$V2.0”, the target mRNA inhibition (HepG2, 0.07 µM) is 63% and 64%.

“RNA1{[moe](A)[sp].[moe](T)[sp].[moe](G)[sp].[moe](A)[sp].d(G)[sp].d(G)[sp].d(C)[sp].d(A)[sp].d(T)[sp].d(A)[sp].d(G)[sp].d(C)[sp].d(A)[sp].[moe](G)[sp].[moe](C)[sp].[moe](A)}$$$$V2.0”: the target mRNA inhibition (HepG2, 0.07 µM) is 54% and 49%.

In the case of “RNA1{[moe](A)[sp].[moe](T)[sp].[moe](T)[sp].[moe](T)[sp].[moe](A)[sp].[moe](T)[sp].d(G)[sp].d(C)[sp].d(C)[sp].d(T)[sp].d(A)[sp].d(C)[sp].d(A)[sp].d(G)[sp].d(C)[sp].[moe](C)[sp].[moe](T)}$$$$V2.0”, the target mRNA inhibition runs as follows: (HepG2, 0.0092593 µM) 0%; (HepG2, 0.0277778 µM) 12%; (HepG2, 0.07 µM) 74% and 57%; (HepG2, 0.0833333 µM) 24%; (HepG2, 0.25 µM) 46%.

In the case of “RNA1{[moe](A)[sp].[moe](T)[sp].[moe](T)[sp].d(T)[sp].d(A)[sp].d(T)[sp].d(G)[sp].d(C)[sp].d(C)[sp].d(T)[sp].d(A)[sp].d(C)[sp].d(A)[sp].[cEt](G)[sp].[cEt](C)[sp].[cEt](C)}$$$$V2.0”, where the note is “HepG2, 0.07 µM”, the target mRNA inhibition is 47% and 65%.
